In patent publication US20190167629A1, “COMBINATION THERAPY METHODS FOR TREATING PROLIFERATIVE DISEASES” (Abraxis BioScience, LLC, priority 2010, published 2019):
Where two headings read alike, the source gives them in different places.

What was measured:
[1] = system: advanced or metastatic solid tumors, including lymphoma; test: Phase I/II study of azacitidine with nanoparticle albumin bound paclitaxel; format: in vivo, human; details: azacitidine sc days 1-5, then paclitaxel 100 mg/m^2 days 8, 15, 22 of 28-day cycle
Method: Patients with evaluable advanced or metastatic solid tumors, including lymphoma, adequate organ function, PS 0-2, and unlimited prior cytotoxic chemotherapies, including taxanes, were eligible. Cohorts of 3-6 patients were enrolled and treated.
Escalating doses of azacitidine (75-100 mg/m^2) were administered to patients subcutaneously on days 1-5, followed by a fixed dose of paclitaxel ([…]) on days 8, 15, and 22 of a 28-day cycle, for a total of 6 cycles. Serum and/or tissue samples, where appropriate, were collected for correlative studies.
Patients were initially permitted to have an unlimited number of prior chemotherapies. […] All affected patients had 4 or more prior cytotoxic regimens. […] Cohort 3 was treated at the next dose level (azacitidine 100 mg/m^2). […] Therefore, the maximum tolerated dose (MTD) of azacitidine in this regimen is 75 mg/m^2. […] To date, 16 patients have enrolled in the phase I part. Two patients were removed before completing cycle 1 because of disease progression. One patient was removed after cycle 4 for noncompliance.

[2] = system: mice implanted with H460 cell lines; test: Tolerable dose of decitabine, viability (weight loss and death); format: in vivo, SCID mice
Method: To establish a maximally tolerated dose to be used in experiments involving pretreatment with decitabine, groups of mice implanted with H460 cell lines were tested at four dose levels of decitabine, i.e., 0.75, 1.5, 2, and 4 mg/kg, administered intraperitoneally as a single dose and monitored for viability (weight loss and death). Two mice from each group were killed 48 hours after completing decitabine treatment alone and tumor xenografts harvested to affirm SPARC-expression status. For combination drug treatment, Abraxane® was administered by tail vein injection at 30 mg/kg/d for 5 consecutive days. Taxol and decitabine were used at 13.4 mg/kg/d and 1.5 mg/kg/d, respectively. […] At the end of drug treatment, the mice were killed. Xenografts were harvested and assayed to determine SPARC status.
The study evaluates tumor SPARC expression upregulation on treatment with decitabine in vitro and in vivo. To establish a tolerable dose to be used in experiments in vivo, groups of mice implanted with H460 cell lines were tested at four dose levels of decitabine, i.e., 0.75, 1.5, 2, and 4 mg/kg, respectively. This is based on prior publication showing that decitabine administered twice daily intraperitoneally for 5 days was toxic at 10 mg/kg/dose, and 2 mg/kg dose was associated with mild toxicity (Guo, Z S et al Cancer Res 2006 22:1105-1113). […] Nevertheless, decitabine at 2 and 4 mg/kg was toxic with 6/8 (75%) mice dead between 8 and 12 days after only one decitabine dose (without Abraxane® treatment). Decitabine dose at 1.5 mg/kg was subsequently used in the combination experiments.

[3] = cited from earlier work
SPARC [4] = test: SPARC promoter methylation (MSP) and SPARC expression (RT-PCR, Western blot) in NSCLC cell lines in vitro; format: cell-based, human; details: 3 days in vitro
Method: Total RNA was extracted from the samples with Trizol reagent (Invitrogen; Carlsbad, Calif.), and first-strand complementary DNA was generated using SuperScript III First-Strand Synthesis System (Invitrogen). The forward polymerase chain reaction (PCR) amplification primer of SPARC was 5′-[…]-3′ (Ex8-S, SEQ ID NO:1), and the reverse primer was 5-[…]-3′ (Ex9-AS, SEQ ID NO:2). Semiquantitative PCR was carried out for 4 minutes at 95° C. for initial denaturation, followed by 33 cycles of 94° C. for 25 seconds, 56° C. for 25 seconds, and 68° C. for 40 seconds. Glyceraldehyde-3-phosphate dehydrogenase (GAPDH) was used as endogenous control. Quantitative real-time (RT) PCR was done with SYBR GreenER qPCR superMix for ABI PRISM (Invitrogen) using ABI 7300 RT PCR system (Invitrogen), and GAPDH was used as a housekeeping gene for purpose of normalization.
The objective of this study was to determine if demethylation of the promoter region of the SPARC gene results in reexpression of the SPARC gene in cancer cells. DNA methylation in gene promoter regions is a mechanism to silence gene expression. The loss of SPARC expression in a large proportion of NSCLC specimens may be due to the methylation in the promoter region of SPARC gene was investigated. Representative samples of NSCLC cell lines or PD xenografts were treated with decitabine (5 μM) in vitro for three days and promoter methylation was analyzed.
Genomic DNA was obtained from cell lines and primary tumors by using DNeasy Blood and Tissue Kit (Qiagen; Valencia, Calif.) according to the manufacturer's handbook. The DNA methylation pattern in the CpG island of SPARC was determined using the method of methylation-specific PCR (MSP) and with the EZ DNA Methylation Kit (Zymo research, Irvine, Calif.). Primers for the methylated reaction were Sparc-unmsp-F: 5′-[…]-3′ (sense, SEQ ID NO:3), Sparcunmsp-R: 5′-[…]-3′ (antisense, SEQ ID NO:4), sparc-msp-F: 5′-[…]-3′ (sense, SEQ ID NO:5), and sparc-msp-R: 5′-[…]-3′ (antisense, SEQ ID NO:6). PCR amplification was carried out with bisulfite-treated DNA as a template using specific primer sequences for the methylated and unmethylated status of the gene. Water blanks were included with each assay. PCR amplification was carried out for 12 minutes at 94° C. for initial denaturation, followed by 40 cycles of 94° C. for 30 seconds, 58° C. for 25 seconds, and 68° C. for 45 seconds. Results were confirmed by repeating the bisulfate treatment and MSP for all samples. PCR products were visualized on 1.5% agarose gels.
Western blot analysis was carried out using standard methods. Polyclonal antihuman SPARC antibody was purchased from R&D System (Minneapolis, Minn.). […] The levels of β-actin (Sigma) were measured as control for equal loading. […]

SPARC [5] = test: SPARC expression in NSCLC xenografts in vivo; set-up: species or system SCID mice
Method: Western blot analysis was carried out using standard methods. Polyclonal antihuman SPARC antibody was purchased from R&D System (Minneapolis, Minn.). NSCLC cell lines A549, H460, and H157 were treated with 5 μM decitabine for 3 days in vitro and then harvested for RT-PCR and Western blot analysis. PD NSCLC xenografts and H460 xenografts treated with or without decitabine at 1.5 mg/kg/d. Xenografts were harvested for SPARC expression analysis. GAPDH were used as the endogenous control. Xenograft lysates were prepared and subjected to immunoblot analysis using 50 μg of cellular protein as described previously (Yu, C. et al. Blood 2003 102:3765-3774). The levels of β-actin (Sigma) were measured as control for equal loading. Immunoblots were developed with enhanced chemiluminescence (Amersham Bioscience, Golden Valley, Minn.).
(§1) To establish a maximally tolerated dose to be used in experiments involving pretreatment with decitabine, groups of mice implanted with H460 cell lines were tested at four dose levels of decitabine, i.e., 0.75, 1.5, 2, and 4 mg/kg, administered intraperitoneally as a single dose and monitored for viability (weight loss and death). Two mice from each group were killed 48 hours after completing decitabine treatment alone and tumor xenografts harvested to affirm SPARC-expression status. […]

NSCLC_16465 xenograft = test: Tumor xenograft growth in vivo, SPARC-negative PD NSCLC xenograft; set-up: species or system SCID mice; details: taxol 13.4 mg/kg
Method: (§2) Experimental studies were carried out using 6- to 8-week-old CB.17 severe combined immunodeficiency (SCID)/SCID with an average body weight ˜25 g. H460 (5×10^6 cells) or PD NSCLC xenografts (mouse-to-mouse passage), which were cut into small fragments (2-3 mm in size), were implanted subcutaneously at the flank region. Tumor growth was monitored by periodic visual inspection at the site of implantation, and the dimensions of the xenografts were measured every 2 to 3 days. Tumor volume was calculated using the following formula: V=LD×(SD)^2/2, where V is the tumor volume, LD is the longest tumor diameter, and SD is the shortest tumor diameter.
as §1, with “death).” for “death). Two mice from each group were killed 48 hours after completing decitabine treatment alone and tumor xenografts harvested to affirm SPARC-expression status.”
(§3) To describe the observed variability in the in vivo data and test for differences between groups, a multivariate linear model was fit to each dependent variable (tumor volume). […] Difference was considered statistically significant when the calculated p value was less than 0.05.

NSCLC_16591 xenograft = test: as above; set-up: species or system SCID mice; details: Abraxane 30 mg/kg, taxol 13.4 mg/kg (equitoxic)
Method: as §2
as §1, with “death).” for “death). Two mice from each group were killed 48 hours after completing decitabine treatment alone and tumor xenografts harvested to affirm SPARC-expression status.”
as §3

NSCLC_16372 xenograft = test: Tumor xenograft growth in vivo, SPARC-positive PD NSCLC xenograft; set-up: species or system SCID mice; details: Abraxane 30 mg/kg, taxol 13.4 mg/kg (equitoxic)
Method: as §2
as §1, with “death).” for “death). Two mice from each group were killed 48 hours after completing decitabine treatment alone and tumor xenografts harvested to affirm SPARC-expression status.”
as §3

NSCLC_15946 xenograft = test: Tumor xenograft growth in vivo, SPARC-intermediate PD NSCLC xenograft; set-up: species or system SCID mice; details: Abraxane 30 mg/kg, taxol 13.4 mg/kg (equitoxic)
Method: as §2
as §1, with “death).” for “death). Two mice from each group were killed 48 hours after completing decitabine treatment alone and tumor xenografts harvested to affirm SPARC-expression status.”
as §3

[6] = decitabine at 2 and 4 mg/kg ip, without Abraxane treatment

Nc1ncn([C@@H]2O[C@H](CO)[C@@H](O)[C@H]2O)c(=O)n1 [azacitidine, 5-azacytidine]
maximum tolerated dose (MTD) of azacitidine in this regimen [1]: 75 mg/m^2

Nc1ncn([C@H]2C[C@H](O)[C@@H](CO)O2)c(=O)n1 [decitabine, 5-aza-2′-deoxycytidine]
toxicity ([2]; decitabine at 2 and 4 mg/kg ip single dose): toxic | mice dead between 8 and 12 days after only one decitabine dose [2, 6]: 75% | mice dead between 8 and 12 days after only one decitabine dose (number/total) [2, 6]: 6/8 | toxicity ([3]; 2 mg/kg dose twice daily intraperitoneally for 5 days): mild toxicity | toxicity ([3]; 10 mg/kg/dose twice daily intraperitoneally for 5 days): toxic | SPARC expression in NSCLC cell lines (SPARC [4]; A549, H460 and H157, decitabine 5 μM): up-regulated | SPARC expression (SPARC [4]; H460 cells, decitabine 5 μM): up-regulated | SPARC protein (Western blot) (SPARC [4]; H460 cells, decitabine 5 μM): upregulation | unmethylated promoter of SPARC (methylation-specific PCR) (SPARC [4]; H460 cells, decitabine 5 μM): increase | SPARC expression in xenografts (SPARC [5]; NSCLC_16325, NSCLC_16384 and H460 xenografts, decitabine 1.5 mg/kg): up-regulated | reexpression of SPARC in H460 xenografts (SPARC [5]; decitabine 0.75, 1.5, 2 and 4 mg/kg ip): dose-dependent reexpression

CC(=O)O[C@H]1C(=O)[C@@]2(C)[C@H]([C@H](OC(=O)c3ccccc3)[C@]3(O)C[C@H](OC(=O)[C@H](O)[C@@H](NC(=O)c4ccccc4)c4ccccc4)C(C)=C1C3(C)C)[C@]1(OC(C)=O)CO[C@@H]1C[C@@H]2O [taxol]
tumor growth compared with vehicle control (NSCLC_16465 xenograft): no difference compared with vehicle control | effect on tumor growth compared with vehicle control (NSCLC_16591 xenograft): Neither administration of taxol nor administration of Abraxane® showed any effect on tumor growth | xenograft growth compared with vehicle control (NSCLC_16372 xenograft): suppressed | tumor growth compared with vehicle control (NSCLC_15946 xenograft): significantly inhibited
